Data published in publication PMC11566078, “Bactericidal activities and biochemical features of 16 antimicrobial peptides against bovine-mastitis causative pathogens” (Veterinary Research, 2024).
Values after ≈ are worked out from the molar mass of the structure shown. Where two headings read alike, the source gives them in different places. Where no end group is shown, it is not given here.

Legend:
Type in all cases: cell-based
[1] = test system: Bacillus cereus ATCC 10876; assay: microbe, parasite or virus in culture; details: for MIC: Bacillus cereus, ATCC10876, read-out: Minimal inhibitory concentration, Bacillus cereus
Protocol: (§1) The standard bacterial strains used for antimicrobial activity assays include Staphylococcus aureus ATCC (American Type Culture Collection, Manassas, VA, USA) 6538, Bacillus cereus ATCC 10876, Enterococcus faecalis ATCC 29212, Streptococcus […] 27956, Streptococcus dysgalactiae ATCC 27957, Streptococcus equi subsp. zooepidemicus ATCC 43079, Escherichia coli ATCC 25922, and Pseudomonas aeruginosa ATCC 27853. Most bacterial strains were cultured in LB medium except for E. faecalis and streptococci, which were cultivated in brain heart infusion (BHI) broth (BD Bioscience). […] Experiments were conducted in triplicate.

[2] = test system: Enterococcus faecalis ATCC 29212; assay: microbe, parasite or virus in culture; details: for MIC: Enterococcus faecalis, ATCC29212, read-out: Minimal inhibitory concentration, Enterococcus faecalis
Protocol: as §1

[3] = test system: Escherichia coli ATCC 25922; assay: microbe, parasite or virus in culture; details: MH broth, WST colourimetric, 1.5 × 10^5 cells/well, 37 °C 6 h + 2 h reagent, A450, triplicate; for MIC: Escherichia coli, ATCC25922, 8 h, read-out: Minimal inhibitory concentration, Escherichia coli
Protocol: as §1

[4] = test system: Pseudomonas aeruginosa ATCC 27853; assay: microbe, parasite or virus in culture; details: for MIC: Pseudomonas aeruginosa, ATCC27853, read-out: Minimal inhibitory concentration, Pseudomonas aeruginosa
Protocol: as §1

[5] = test system: Staphylococcus aureus ATCC 6538; assay: microbe, parasite or virus in culture; details: for MIC: Staphylococcus aureus, ATCC6538, read-out: Minimal inhibitory concentration, Staphylococcus aureus
Protocol: as §1

[6] = test system: Streptococcus agalactiae ATCC 27956; assay: microbe, parasite or virus in culture; details: for MIC: Streptococcus agalactiae, ATCC27956, read-out: Minimal inhibitory concentration, Streptococcus agalactiae
Protocol: as §1

[7] = test system: Streptococcus dysgalactiae ATCC 27957; assay: microbe, parasite or virus in culture; details: for MIC: Streptococcus dysgalactiae, ATCC27957, read-out: Minimal inhibitory concentration, Streptococcus dysgalactiae
Protocol: as §1

[8] = test system: Streptococcus equi subsp. zooepidemicus ATCC 43079; assay: microbe, parasite or virus in culture; details: for MIC: Streptococcus equi, ATCC43079, read-out: Minimal inhibitory concentration, Streptococcus equi subsp. zooepidemicus
Protocol: as §1

[9] = test system: Staphylococcus haemolyticus; assay: MIC against field isolate from milk with high SCC; details: for MIC: Staphylococcus haemolyticus, read-out: Minimal inhibitory concentration, Staphylococcus haemolyticus
Protocol: (§2) All plates were cultivated aerobically.
(§3) Experiments were conducted in triplicate.

Aeromonas hydrophila = assay: microbe, parasite or virus in culture; details: Aeromonas hydrophila; Gram-negative field isolate from milk; BHI broth; WST colourimetric, 37 °C 6 h; triplicate; read-out: Minimal inhibitory concentration, Aeromonas hydrophila
Protocol: as §2, §3

Corynebacterium simulans = assay: microbe, parasite or virus in culture; details: Corynebacterium simulans; field isolate from milk; BHI broth; WST colourimetric, 37 °C 6 h; triplicate; read-out: Minimal inhibitory concentration, Corynebacterium simulans
Protocol: as §2, §3

[10] = test system: Glutamicibacter halophytocola; assay: microbe, parasite or virus in culture; details: Glutamicibacter halophytocola; field isolate from milk; BHI broth; WST colourimetric, 37 °C 6 h; triplicate; read-out: Minimal inhibitory concentration, Glutamicibacter halophytocola
Protocol: as §2, §3

[11] = test system: Staphylococcus chromogenes; assay: microbe, parasite or virus in culture; details: for MIC: Staphylococcus chromogenes, read-out: Minimal inhibitory concentration, Staphylococcus chromogenes
Protocol: as §2, §3

[12] = test system: Staphylococcus epidermidis; assay: microbe, parasite or virus in culture; details: field isolate from milk, WST colourimetric, 37 °C 6 h, triplicate; for MIC: Staphylococcus epidermidis, read-out: Minimal inhibitory concentration, Staphylococcus epidermidis
Protocol: as §2, §3

Staphylococcus xylosus = assay: microbe, parasite or virus in culture; details: for MIC: Staphylococcus xylosus, read-out: Minimal inhibitory concentration, Staphylococcus xylosus
Protocol: as §2, §3

Streptococcus uberis = assay: microbe, parasite or virus in culture; details: Streptococcus uberis; field isolate from milk; BHI broth; WST colourimetric, 37 °C 6 h; triplicate; read-out: Minimal inhibitory concentration, Streptococcus uberis
Protocol: as §2, §3

[13] = test system: eight standard bacterial strains
Protocol: as §1

[14] = ATCC 10876, MH broth, WST colourimetric, 37 °C 6 h, triplicate
[15] = ATCC 29212, BHI broth, WST colourimetric, 37 °C 6 h, triplicate
[16] = ATCC 27853, CAMHB, WST colourimetric, 37 °C 6 h, triplicate
[17] = ATCC 6538, MH broth, WST colourimetric, 37 °C 6 h, triplicate
[18] = ATCC 27956, BHI broth, WST colourimetric, 37 °C 6 h, triplicate
[19] = ATCC 27957, BHI broth, WST colourimetric, 37 °C 6 h, triplicate
[20] = ATCC 43079, BHI broth, WST colourimetric, 37 °C 6 h, triplicate
[21] = field isolate from milk, WST colourimetric, 37 °C 6 h, triplicate
[22] = value in brackets, Additional file 6, field isolate
[23] = only some Gram-negative and Gram-positive strains, range stated for the group of peptides

| Compound | MIC [1, 14] [µg/mL] | MIC [2, 15] [µg/mL] | MIC [3] [µg/mL] | MIC [4, 16] [µg/mL] | MIC [5, 17] [µg/mL] | MIC [6, 18] [µg/mL] | MIC [7, 19] [µg/mL] | MIC [8, 20] [µg/mL] | MIC [9, 21] [µg/mL] | MIC [9, 22] [µM] | MIC (Aeromonas hydrophila) [µg/mL] | MIC (Corynebacterium simulans) [µg/mL] | MIC [10] [µg/mL] | MIC [11, 21] [µg/mL] | MIC [11, 22] [µM] | MIC [12] [µg/mL] | MIC (Staphylococcus xylosus; [21]) [µg/mL] | MIC (Staphylococcus xylosus; [22]) [µM] | MIC (Streptococcus uberis) [µg/mL] | Minimal inhibitory concentration, Bacillus cereus [1, 14] | also measured |
| --- | --- | --- | --- | --- | --- | --- | --- | --- | --- | --- | --- | --- | --- | --- | --- | --- | --- | --- | --- | --- | --- |
| CC1(C)S[C@@H]2[C@H](NC(=O)[C@H](N)c3ccccc3)C(=O)N2[C@H]1C(=O)O [Ampicillin, reference compound] | 80 (≈ 229 µM) | 10 (≈ 28.6 µM) | 5 | > 640 | 2 (≈ 5.72 µM) | 4 (≈ 11.4 µM) | 2 (≈ 5.72 µM) | 2 (≈ 5.72 µM) | 10 | 0.0286 | > 240 | > 240 | 15 (≈ 42.9 µM) | 5 | 0.0143 | 5 (≈ 14.3 µM) | 5 | 0.0143 | > 240 | – | – |
| CNC(C)C1CCC(N)C(OC2C(N)CC(N)C(OC3OCC(C)(O)C(NC)C3O)C2O)O1 (centres unmarked) [Gentamicin, reference compound] | 1 (≈ 2.09 µM) | 90 (≈ 188 µM) | 1 | 1 (≈ 2.09 µM) | 1 (≈ 2.09 µM) | 75 (≈ 157 µM) | 15 (≈ 31.4 µM) | 45 (≈ 94.2 µM) | 10 | 0.0209 | 4 (≈ 8.38 µM) | 10 (≈ 20.9 µM) | 3 (≈ 6.28 µM) | 2 | 0.0042 | 4 (≈ 8.38 µM) | 1 | 0.0021 | 60 (≈ 126 µM) | – | – |
| KRRGSVTTRYQFLMIHLLRPKKLFA [EA-CATH1] | – | – | – | – | – | – | – | – | – | – | – | – | – | – | – | – | – | – | – | – | Minimal inhibitory concentration, Bacillus cereus ([1]; ATCC 10876, 6 h): > 40 (13.1) μg/mL; Minimal inhibitory concentration, Enterococcus faecalis ([2]; ATCC 29212, 6 h): 30 (9.8) μg/mL; Minimal inhibitory concentration, Pseudomonas aeruginosa ([4]; ATCC 27853, 6 h): 19 (6.1) μg/mL; Minimal inhibitory concentration, Staphylococcus aureus ([5]; ATCC 6538, 6 h): 41 (13.4) μg/mL; Minimal inhibitory concentration, Streptococcus agalactiae ([6]; ATCC 27956, 6 h): > 40 (13.1) μg/mL; Minimal inhibitory concentration, Streptococcus dysgalactiae ([7]; ATCC 27957, 6 h): > 40 (13.1) μg/mL; Minimal inhibitory concentration, Streptococcus equi subsp. zooepidemicus ([8]; ATCC 43079, 6 h): > 40 (13.1) μg/mL; MICs, range over the strains against which active [13, 23]: 0.7 to 18.8 µM |
| Nisin | – | – | – | – | – | – | – | – | – | – | – | – | – | – | – | – | – | – | – | 4 (1.2) μg/mL | Minimal inhibitory concentration, Escherichia coli [3]: > 64 (19.2) μg/mL; Minimal inhibitory concentration, Pseudomonas aeruginosa [4, 16]: > 64 (19.2) μg/mL; Minimal inhibitory concentration, Staphylococcus aureus [5, 17]: 2 (0.60) μg/mL; Minimal inhibitory concentration, Streptococcus agalactiae [6, 18]: 2 (0.60) μg/mL; Minimal inhibitory concentration, Streptococcus dysgalactiae [7, 19]: 4 (1.2) μg/mL; Minimal inhibitory concentration, Streptococcus equi subsp. zooepidemicus [8, 20]: 4 (1.2) μg/mL; MICs, range over all Gram-positive strains in the panel ([13]; all Gram-positive strains of the standard panel): 2 to 16 µg/mL |
| MRGGRLCYCRRRFCVCVGR (disulfide (positions not given here)) [PG-1, pig cathelicidin produced recombinantly with a GFP-scaffold system, CNBr cleaved, disulfide bonds installed] | – | – | – | – | – | – | – | – | – | – | – | – | – | – | – | – | – | – | – | > 40 (17.5) μg/mL | Minimal inhibitory concentration, Enterococcus faecalis [2, 15]: > 40 (17.5) μg/mL; Minimal inhibitory concentration, Escherichia coli [3]: 23 (10.0) μg/mL; Minimal inhibitory concentration, Pseudomonas aeruginosa [4, 16]: 20 (8.7) μg/mL; Minimal inhibitory concentration, Streptococcus agalactiae [6, 18]: > 40 (17.5) μg/mL; Minimal inhibitory concentration, Streptococcus dysgalactiae [7, 19]: 32 (14.0) μg/mL; Minimal inhibitory concentration, Streptococcus equi subsp. zooepidemicus [8, 20]: > 40 (17.5) μg/mL; MICs, range over the strains against which active [13, 23]: 0.7 to 18.8 µM |
| TRSRWRRFIRGAGRFARRYGWRIA [ΔPb-CATH4] | – | – | – | – | – | – | – | – | – | – | – | – | – | – | – | – | – | – | – | – | Minimal inhibitory concentration, Bacillus cereus ([1]; ATCC 10876, 6 h): > 40 (13.1) μg/mL; Minimal inhibitory concentration, Enterococcus faecalis ([2]; ATCC 29212, 6 h): > 40 (13.1) μg/mL; Minimal inhibitory concentration, Pseudomonas aeruginosa ([4]; ATCC 27853, 6 h): 11 (3.5) μg/mL; Minimal inhibitory concentration, Staphylococcus aureus ([5]; ATCC 6538, 6 h): 4 (1.3) μg/mL; Minimal inhibitory concentration, Streptococcus agalactiae ([6]; ATCC 27956, 6 h): > 40 (13.1) μg/mL; Minimal inhibitory concentration, Streptococcus dysgalactiae ([7]; ATCC 27957, 6 h): > 40 (13.1) μg/mL; Minimal inhibitory concentration, Streptococcus equi subsp. zooepidemicus ([8]; ATCC 43079, 6 h): 20 (6.6) μg/mL; MICs, range over the strains against which active [13]: 0.7 to 18.8 µM |
| Lysostaphin: bacteriocin produced by Staphylococcus simulans, purchased (Sigma Aldrich) | – | – | – | – | – | – | – | – | – | – | – | – | – | – | – | – | – | – | – | > 160 (29.7) μg/mL | Minimal inhibitory concentration, Enterococcus faecalis [2, 15]: > 160 (29.7) μg/mL; Minimal inhibitory concentration, Escherichia coli [3]: > 160 (29.7) μg/mL; Minimal inhibitory concentration, Pseudomonas aeruginosa [4, 16]: > 160 (29.7) μg/mL; Minimal inhibitory concentration, Staphylococcus aureus [5, 17]: 1 µg/mL; Minimal inhibitory concentration, Streptococcus agalactiae [6, 18]: > 160 (29.7) μg/mL; Minimal inhibitory concentration, Streptococcus dysgalactiae [7, 19]: > 160 (29.7) μg/mL; Minimal inhibitory concentration, Streptococcus equi subsp. zooepidemicus [8, 20]: > 160 (29.7) μg/mL; Minimal inhibitory concentration, Staphylococcus haemolyticus [9, 21]: 1 (37.3) μg/mL; Minimal inhibitory concentration, Staphylococcus chromogenes [11, 21]: 0.25 (9.3) μg/mL; Minimal inhibitory concentration, Staphylococcus epidermidis [12]: 1 (37.3) μg/mL; Minimal inhibitory concentration, Staphylococcus xylosus (Staphylococcus xylosus; [21]): 0.5 (18.7) μg/mL |
| O=C(N[C@H](CO)[C@H](O)c1ccc([N+](=O)[O-])cc1)C(Cl)Cl [Chloramphenicol, reference compound] | 10 (≈ 30.9 µM) | 10 (≈ 30.9 µM) | 3 | 80 (≈ 248 µM) | 8 (≈ 24.8 µM) | 5 (≈ 15.5 µM) | 4 (≈ 12.4 µM) | 5 (≈ 15.5 µM) | 10 | 0.031 | 5 (≈ 15.5 µM) | 8 (≈ 24.8 µM) | 3 (≈ 9.28 µM) | 18 | 0.0558 | 5 (≈ 15.5 µM) | 8 | 0.0248 | 50 (≈ 155 µM) | – | – |
